Source: patent US5942521A, “Quinolinone derivative and anti-allergic agent with said quinolinone derivative as the active ingredient” (Dainippon Ink and Chemicals, Inc., priority 1996, dated 1999)

What was measured:
[1] = test system: contact dermatitis induced by picryl chloride; assay: Effect on contact dermatitis induced by picryl chloride in mice; format: in vivo; settings: for inhibition in vivo at 20 mg/kg: test compounds, 20 mg/kg p.o. 12 hours after challenge
Protocol: Effect on contact dermatitis induced by picryl chloride in mice
The delayed type hypersensitization is inhibited by steroid, but can not be effected by known anti-allergic agents. In the following, the method of the pharmacological test will be explained.
Method: Mice, shaved their abdominal skin on previous day, were immunized by applying 0.1 ml of acetone containing 7 mg of picryl chloride to the skin of the abdomen. 7 days after immunization, the thickness of the ear was measured with a dial thickness gauge, then mice were challenged by painting […] of 1% picryl chloride olive oil solution to each side skin of left ear. 24 hours after challenge, the thickness of the left ear was measured again. The compounds of the present invention (test compounds) suspended in 0.5% MC were forcibly administered orally at a dose of 20 mg/kg 12 hours after challenge. As vehicle control group, only 0.5% MC solution was administered orally, and as positive control group, Prednisolone, steroid hormone, was administered orally at a dose of 10 mg/kg and as negative control group, Tranilast was administered orally at a dose of 200 mg/kg.
Increase (%)=(A-B)/B×100 (Equation 2)
A: thickness of the ear at 24 hours after challenge
B: thickness of the ear before challenge
Inhibition (%)=(C-D)/C×100 (Equation 3)
C: The increase (%) in vehicle control group
D: The increase (%) in test compounds group, positive control group

[2] = test system: passive cutaneous anaphylaxis (PCA) reaction; assay: Effect on homologous passive cutaneous anaphylaxis (PCA) reaction in rats; format: in vivo; settings: Rattus norvegicus, po, 0.5 h, male wistar rats; for inhibition in vivo at 100 mg/kg: test compounds, 100 mg/kg p.o., 1 hour before induction of anaphylaxis
Protocol: Effect on homologous passive cutaneous anaphylaxis (PCA) reaction in rats
This experimental animal model is caused by immediate type allergic reaction, namely, antigen-antibody reaction. In the following, the method of this pharmacological test will be explained.
Method: Male wistar rats (9 weeks old) were intradermally administered 0.05 ml of anti-serum against dinitrophenylated ascaris (DNP-As) into two sites on the shaved dorsal skin. 48 hours later, aminoquinolinone derivatives (test compounds) suspended in 0.5% methylcellulose (MC) were given orally at a dose of 100 mg/kg to the animals. 1 hour after administration of Test compounds, the animals were induced anaphylaxis by injection of saline (1 ml) dissolving 1 mg of trinitrophenylated ascaris (TNP-As) and 5 mg of Evans Blue into the tail vein of the animals. 30 minutes after induction of anaphylaxis, animals were anesthetized by ether and killed by bleeding, and were flayed dorsal skin. The leakage of dye was assessed by measuring the diameter (mean of shortest and longest diameter) of the blue spot on the inside surface of dorsal skin. As vehicle control group, only 0.5% MC solution was administered orally, and as positive control group, Tranilast suspended in 0.5% MC were administered orally at a dose of 200 mg/kg to the animals with the same method as the test compounds groups, The inhibition (%) of PCA reaction was calculated according to equation 1 and the result was shown in Table 1. Each experimental group consisted of 5 rats.
In the conditions of this experiment, it was considered that the compound, which inhibited PCA reaction by over forty (40) percent against that in vehicle control group, was evidently effective for immediate type allergy.
Inhibition (%)=(A-B)/A×100 (Equation 1)
A: leakage of dye in vehicle control group
B: leakage of dye in test compound group or positive control group

[3] = Mus musculus, po, ear thickness at 24 hours, read-out: Inhibition (%) of increase of ear thickness

Row | Compound | inhibition in vivo at 20 mg/kg [1, 3] [%] | inhibition in vivo at 100 mg/kg [2] [%] | inhibition in vivo at 200 mg/kg ([1]; Mus musculus, po, negative control Tranilast, 200 mg/kg p.o., ear thickness at 24 hours, read-out: Inhibition (%) of increase of ear thickness) [%] | inhibition of delayed type hypersensitization (in words) ([1]; Tranilast, 200 mg/kg p.o.) | inhibition in vivo at 200 mg/kg ([2]; positive control Tranilast, 200 mg/kg p.o.) [%]
1 | CCOc1c(OC(C)=O)c(=O)n(C)c2cc(N)ccc12 [compound 20, 7-amino-3-acetoxy-4-ethoxy-1-methyl-2(1H)-quinolinone] | 43 | 41 | – | – | –
2 | CCCCCCCCCCOc1c(O)c(=O)n(CCC)c2cc(N)ccc12 [compound 34, 7-amino-3-hydroxy-4-decyloxy-1-propyl-2(1H)-quinolinone] | 37 | 40 | – | – | –
3 | CNc1ccc2c(OC)c(OC(C)=O)c(=O)n(C)c2c1 [compound 9] | 43 | 45 | – | – | –
4 | CCCCCCCCOc1c(O)c2ccc(NC(=O)c3ccccc3)cc2n(C)c1=O [compound 49, 7-benzoylamino-3-octyloxy-4-hydroxy-1-methyl-2(1H1)-quinolinone] | 43 | 46 | – | – | –
5 | CCCCCCCCOc1c(O)c2ccc(NC(C)=O)cc2n(C)c1=O [compound 39, 7-acetylamino-3-octyloxy-4-hydroxy-1-methyl-2(1H)-quinolinone] | 48 | 50 | – | – | –
6 | CCCCCCCCOc1c(O)c(=O)n(C)c2cc(NC)ccc12 [compound 26, 7-methylamino-3-hydroxy-4-octyloxy-1-methyl-2(1H)-quinolinone] | 39 | 41 | – | – | –
7 | CNc1ccc2c(O)c(OC/C=C(\C)CCC=C(C)C)c(=O)n(C)c2c1 [compound 31, 7-methylamino-3-geranyloxy-4-hydroxy-1-methyl-2(1H)-quinolinone] | 45 | 46 | – | – | –
8 | Cn1c(=O)c(O)c(O)c2ccc(N)cc21 [compound 8, 7-amino-3,4-dihydroxy-1-methyl-2(1H)-quinolinone] | 41 | 48 | – | – | –
9 | CCCCOc1c(O)c(=O)n(CCC)c2cc(N)ccc12 [compound 33, 7-amino-3-hydroxy-4-butyloxy-1-propyl-2(1H)-quinolinone] | 40 | 40 | – | – | –
10 | CNc1ccc2c(OC)c(O)c(=O)n(C)c2c1 [compound 10, 7-methylamino-3-hydroxy-4-methoxy-1-methyl-2(1H)-quinolinone] | 40 | 42 | – | – | –
11 | COc1c(O)c2ccc(N)cc2n(C)c1=O [compound 19, 7-amino-3-methoxy-4-hydroxy-1-methyl-2(1H)-quinolinone] | 45 | 44 | – | – | –
12 | CCCCNc1ccc2c(OC)c(OC(C)=O)c(=O)[nH]c2c1 [compound 16, 7-butylamino-3-acetoxy-4-methoxy-2(1H)-quinolinone] | 36 | 42 | – | – | –
13 | CCCCCCCCOc1c(O)c2ccc(NCc3ccccc3)cc2n(C)c1=O [compound 47, 7-benzylamino-3-octyloxy-4-hydroxy-1-methyl-2(1H)-quinolinone] | 48 | 40 | – | – | –
14 | CCCCCCCCNc1ccc2c(O)c(OC)c(=O)n(C)c2c1 [compound 24, 7-octylamino-3-methoxy-4-hydroxy-1-methyl-2(1H)-quinolinone] | 44 | 46 | – | – | –
15 | CCCCCCOc1c(O)c(=O)n(C)c2cc(NCCCC)ccc12 [compound 28, 7-butylamino-3-hydroxy-4-hexyloxy-1-methyl-2(1H)-quinolinone] | 37 | 42 | – | – | –
16 | COc1c(O)c(=O)[nH]c2cc(N)ccc12 [compound 14, 7-amino-3-hydroxy-4-methoxy-2(1H)-quinolinone] | 38 | 44 | – | – | –

Row | Compound | inhibition in vivo at 20 mg/kg [1, 3] [%] | inhibition in vivo at 100 mg/kg [2] [%] | inhibition in vivo at 200 mg/kg ([1]; Mus musculus, po, negative control Tranilast, 200 mg/kg p.o., ear thickness at 24 hours, read-out: Inhibition (%) of increase of ear thickness) [%] | inhibition of delayed type hypersensitization (in words) ([1]; Tranilast, 200 mg/kg p.o.) | inhibition in vivo at 200 mg/kg ([2]; positive control Tranilast, 200 mg/kg p.o.) [%]
17 | CCCCn1c(=O)c(O)c(OC)c2ccc(N(C)C)cc21 [compound 36, 7-dimethylamino-3-hydroxy-4-methoxy-1-butyl-2(1H)-quinolinone] | 40 | 41 | – | – | –
18 | C=CCOc1c(O)c2ccc(NC)cc2n(C)c1=O [compound 29, 7-methylamino-3-(2-propenyloxy)-4-hydroxy-1-methyl-2(1H)-quinolinone] | 48 | 42 | – | – | –
19 | CCCCCCOc1c(O)c2ccc(N)cc2n(CC)c1=O [compound 32, 7-amino-3-hexyloxy-4-hydroxy-1-ethyl-2(1H)-quinolinone] | 48 | 44 | – | – | –
20 | CCCCCCCCOc1c(O)c2ccc(NC(=O)/C=C/c3ccc(OC(C)=O)c(OC)c3)cc2n(C)c1=O [compound 44, 7-(4-acetoxy-3-methoxycinnamoylamino)-3-octyloxy-4-hydroxy-1-methyl-2(1H)-quinolinone] | 53 | 50 | – | – | –
21 | CCCCn1c(=O)c(O)c(OCC=C(C)C)c2ccc(NC)cc21 [compound 38, 7-methylamino-3-hydroxy-4-prenyloxy-1-butyl-2(1H)-quinolinone] | 37 | 40 | – | – | –
22 | CCCCCCOc1c(O)c2ccc(N(C)C)cc2n(C)c1=O [compound 25, 7-dimethylamino-3-hexyloxy-4-hydroxy-1-methyl-2(1H)-quinolinone] | 48 | 47 | – | – | –
23 | COc1c(OC(C)=O)c(=O)[nH]c2cc(N)ccc12 [compound 15, 7-amino-3-acetoxy-4-methoxy-2(1H)-quinolinone] | 40 | 41 | – | – | –
24 | COc1ccc(/C=C/C(=O)Nc2ccccc2C(=O)O)cc1OC [Tranilast, reference compound] | – | – | 6 | did not inhibit delayed type hypersensitization | 54
25 | COc1c(OC(C)=O)c(=O)n(C)c2cc(N)ccc12 [compound 6, 7-amino-3-acetoxy-4-methoxy-1-methyl-2(1H)-quinolinone] | 43 | 46 | – | – | –
26 | CCCCn1c(=O)c(OCC=C(C)C)c(O)c2ccc(NC)cc21 [compound 37, 7-methylamino-3-prenyloxy-4-hydroxy-1-butyl-2(1H)-quinolinone] | 45 | 42 | – | – | –
27 | CCCCCCOc1c(O)c2ccc(NC(=O)/C=C/c3cc(OC)c(O)c(OC)c3)cc2n(C)c1=O [compound 43, 7-(4-hydroxy-3,5-dimethoxycinnamoylamino)-3-hexyloxy-4-hydroxy-1-methyl-2(1H)-quinolinone] | 53 | 49 | – | – | –
28 | CCCCCCOc1c(O)c(=O)n(C)c2cc(N)ccc12 [compound 23, 7-amino-3-hydroxy-4-hexyloxy-1-methyl-2(1H)-quinolinone] | 41 | 44 | – | – | –
29 | CCCCCCCCOc1c(O)c2ccc(N)cc2n(C)c1=O [compound 22, 7-amino-3-octyloxy-4-hydroxy-1-methyl-2(1H)-quinolinone] | 55 | 57 | – | – | –
30 | CCCCCCOc1c(O)c2ccc(N(C)C)cc2n(CCCC)c1=O [compound 35, 7-dimethylamino-3-hexyloxy-4-hydroxy-1-butyl-2(1H)-quinolinone] | 46 | 45 | – | – | –
31 | CCCCCCCCOc1c(O)c2ccc(NCC=C(C)C)cc2n(C)c1=O [compound 48, 7-prenylamino-3-octyloxy-4-hydroxy-1-methyl-2(1H)-quinolinone] | 53 | 50 | – | – | –
32 | CNc1ccc2c(O)c(OCC=C(C)C)c(=O)n(C)c2c1 [compound 30, 7-methylamino-3-prenyloxy-4-hydroxy-1-methyl-2(1H)-quinolinone] | 52 | 44 | – | – | –
